These results are taken from patent US8835476B2, “Synthesis of novel antimicrobials” (priority 2005, dated 2014).

Each structure is given as a SMILES string. In brackets after ≈: the same amount, converted by molar mass. Where two headings read alike, the source gives them in different places.

Assay type in all cases: cell-based
One assay relates to A. anitratus ATCC 19606. The assay can be described thus: Broth microdilution MIC, ATCC strains. The settings on record: Acinetobacter calcoaceticus, ATCC19606; A. anitratus ATCC 19606; read-out: MIC (growth inhibition, microdilution method). An excerpt:
(§1) All clinical isolates tested were from The North American Urinary Tract Infection Collaborative Alliance (NAUTICA) which is a UTI surveillance study involving 40 medical centres (30 from the US and 10 from Canada). Each centre submitted up to 50 consecutive outpatient midstream urine isolates. All isolates were deemed significant urinary tract pathogens by individual laboratory criteria and identified to the species level by each laboratory's existing protocol. Isolates were transported to the coordinating laboratory (Health Sciences Centre, Winnipeg, Canada) on charcoal swabs. Only one isolate per patient was accepted. Upon receipt, isolates were cultured by the coordinating laboratory, stocked in skim milk, and stored at −80° C. awaiting reference antibiotic susceptibility testing. Elementary demographic information was also compiled for each isolate. Isolates were selected randomly from the above pool to represent 18 different species of Enterobacteriaceae and non-Enterobacteriaceae. An average of 5 strains of each species were tested for a total of 93 organisms. In addition, 23 reference (ATCC) [both gram negative and gram positive] strains were tested.
(§2) Susceptibilities to the compounds were determined using the National Committee for Clinical Laboratory Standards (NCCLS) M7-A6 broth microdilution method. […] DMSO controls were incorporated into the panel to mimic the quantity of DMSO used in dissolving some of the compounds at the higher concentrations. Each final panel well volume was 100 μl with a bacterial inoculum of 5×10^5 colony forming units (CFU)/ml. Panels were read following 16 to 20 hours of incubation at 35° C. in ambient air. The minimum inhibitory concentration (MIC) was defined as the lowest concentration of antimicrobial inhibiting visible growth. Quality control (QC) was performed using four ATCC QC organisms that were run with every batch set up to insure reproducibility.

The subject of another assay is B. cepacia ATCC 25416. The assay can be described thus: Broth microdilution MIC, ATCC strains. The settings on record: Burkholderia cepacia, ATCC25416; B. cepacia ATCC 25416; read-out: MIC (growth inhibition, microdilution method).
Excerpt: as §1, §2
For orientation: Dilution methods test growth across graded concentrations, often in twofold steps.

The subject of another assay is E. aerogenes ATCC 13048. The assay can be described thus: Broth microdilution MIC, ATCC strains. The conditions noted are these: Klebsiella aerogenes, ATCC13048; E. aerogenes ATCC 13048; read-out: MIC (growth inhibition, microdilution method).
Excerpt: as §1, §2

Another assay concerns E. coli ATCC 25922. The assay can be described thus: Broth microdilution MIC, ATCC strains. The conditions noted are these: for MIC: Escherichia coli, ATCC25922, E. coli ATCC 25922, read-out: MIC (growth inhibition, microdilution method).
Excerpt: as §1, §2

The next assay concerns E. faecalis ATCC 29212. The assay can be described thus: Broth microdilution MIC, ATCC strains. The settings on record: for MIC: Enterococcus faecalis, read-out: MIC (growth inhibition, microdilution method).
Excerpt: as §1, §2

In another assay the test system is K. oxytoca ATCC 49131. The assay can be described thus: Broth microdilution MIC, ATCC strains. The conditions noted are these: Klebsiella oxytoca, ATCC49131; K. oxytoca ATCC 49131; read-out: MIC (growth inhibition, microdilution method).
Excerpt: as §1, §2

In a further assay the test system is K. pneumoniae ATCC 13883. The assay can be described thus: Broth microdilution MIC, ATCC strains. The conditions noted are these: Klebsiella pneumoniae, ATCC13883; K. pneumoniae ATCC 13883; read-out: MIC (growth inhibition, microdilution method).
Excerpt: as §1, §2

The next assay concerns MRSA ATCC 33591. The assay can be described thus: Broth microdilution MIC, ATCC strains. The conditions noted are these: Staphylococcus aureus; MRSA ATCC 33591; read-out: MIC (growth inhibition, microdilution method).
Excerpt: as §1, §2

The next assay deals with P. vulgaris ATCC 49132. The assay can be described thus: Broth microdilution MIC, ATCC strains. The settings on record: Proteus vulgaris, ATCC49132; P. vulgaris ATCC 49132; read-out: MIC (growth inhibition, microdilution method).
Excerpt: as §1, §2

Assay [1] deals with Ps. aeruginosa ATCC 27853. The assay can be described thus: Broth microdilution MIC, ATCC strains. The conditions noted are these: Ps. aeruginosa ATCC 27853; for MIC: Pseudomonas aeruginosa, ATCC27853, read-out: MIC (growth inhibition, microdilution method).
Excerpt: as §1, §2

In the next assay the test system is S. aureus ATCC 29213. The assay can be described thus: Broth microdilution MIC, ATCC strains. The settings on record: Staphylococcus aureus, ATCC29213, S. aureus ATCC 29213; read-out: MIC (growth inhibition, microdilution method).
Excerpt: as §1, §2

The subject of assay [2] is S. maltophilia ATCC 13637. The assay can be described thus: Broth microdilution MIC, ATCC strains. The settings on record: Stenotrophomonas maltophilia, ATCC13637; S. maltophilia ATCC 13637; read-out: MIC (growth inhibition, microdilution method).
Excerpt: as §1, §2

The next assay relates to S. marcescens ATCC 8100. The assay can be described thus: Broth microdilution MIC, ATCC strains. The settings on record: Serratia marcescens, ATCC8100; S. marcescens ATCC 8100; read-out: MIC (growth inhibition, microdilution method).
Excerpt: as §1, §2

Assay [3] relates to C. freundii clinical isolates. The assay can be described thus: Broth microdilution MIC, clinical isolate strains (NAUTICA). The conditions noted are these: clinical isolates, one table line per isolate; in µg/mL (unit assumed).
Excerpt: as §1, §2

For assay [4], the system named is C. amalonaticus clinical isolates. The assay is described as above. The conditions noted are these: clinical isolates, one table line per isolate; unit assumed.
Excerpt: as §1, §2

For assay [5], the system named is C. koseril clinical isolates. The description is as above. The conditions noted are these: clinical isolates, one table line per isolate; unit assumed.
Excerpt: as §1, §2

The subject of assay [6] is E. aerogenes clinical isolates. The assay is described as above. The settings on record: clinical isolates, one table line per isolate; unit assumed.
Excerpt: as §1, §2

Assay [7] concerns E. cloacae clinical isolates. The assay is described as above. The settings on record: clinical isolates, one table line per isolate; unit assumed.
Excerpt: as §1, §2

The subject of assay [8] is E. coli clinical isolates. Described as above. The conditions noted are these: clinical isolates, one table line per isolate; unit assumed.
Excerpt: as §1, §2

In assay [9] the test system is K. oxytoca clinical isolates. The description is as above. The conditions noted are these: clinical isolates, one table line per isolate; unit assumed.
Excerpt: as §1, §2

Assay [10] has as its system K. pneumoniae clinical isolates. The assay is described as above. The conditions noted are these: clinical isolates, one table line per isolate; unit assumed.
Excerpt: as §1, §2

Assay [11] deals with M. morganii clinical isolates. The description is as above. The settings on record: clinical isolates, one table line per isolate; unit assumed.
Excerpt: as §1, §2

Assay [12] deals with P. mirabilis clinical isolates. The assay is described as above. The conditions noted are these: clinical isolates, one table line per isolate; unit assumed.
Excerpt: as §1, §2

Assay [13] deals with P. retgerri clinical isolates. Described as above. The conditions noted are these: clinical isolates, one table line per isolate; unit assumed.
Excerpt: as §1, §2

Assay [14] deals with P. vulgaris clinical isolates. Described as above. The conditions noted are these: clinical isolates, one table line per isolate; unit assumed.
Excerpt: as §1, §2

Assay [15] relates to S. liquifaciens clinical isolates. The assay is described as above. The settings on record: clinical isolates, one table line per isolate; unit assumed.
Excerpt: as §1, §2

Assay [16] has as its system S. maltophilia clinical isolates. The description is as above. The conditions noted are these: clinical isolates, one table line per isolate; unit assumed.
Excerpt: as §1, §2

The subject of assay [17] is S. marcescens clinical isolates. Described as above. The settings on record: clinical isolates, one table line per isolate; unit assumed.
Excerpt: as §1, §2

Where [18] appears, read: ATCC29212, E. faecalis ATCC 29212.
Where [19] appears, read: ATCC29212, E. faecalis, ATCC number not given.

As usually defined, the MIC is the lowest concentration that inhibits growth of the organism. `Cn1nnc(-c2cc(C(=O)O)sc2-c2ccc(F)cc2)n1` [DNM-123, 5-(4-fluorophenyl)-4-(2-methyl-2H-tetrazol-5-yl)thiophene-2-carboxylic acid]: the MIC with A. anitratus ATCC 19606 is ≤ 0.5 µg/mL; in the assay with B. cepacia ATCC 25416, ≤ 0.5 µg/mL; with E. aerogenes ATCC 13048, 8 µg/mL (≈ 26.3 µM); in the assay on E. coli ATCC 25922, 8 µg/mL (≈ 26.3 µM); with E. faecalis ATCC 29212 (setting [18]) it was 8 µg/mL (≈ 26.3 µM); with E. faecalis ATCC 29212 (setting [19]) it was 8 µg/mL (≈ 26.3 µM). For the same compound, the MIC with K. oxytoca ATCC 49131 is > 8 µg/mL; in the assay on K. pneumoniae ATCC 13883, 8 µg/mL (≈ 26.3 µM); in the assay on MRSA ATCC 33591, > 8 µg/mL; in the assay with P. vulgaris ATCC 49132, > 8 µg/mL; in assay [1] it was 8 µg/mL (≈ 26.3 µM); in the assay with S. aureus ATCC 29213, > 8 µg/mL. Further, the MIC is ≤ 0.5 µg/mL in assay [2] and 8 µg/mL (≈ 26.3 µM) with S. marcescens ATCC 8100. For the same compound, the “MIC (growth inhibition, microdilution method)” value is 8 µg/mL (≈ 26.3 µM) against E. coli ATCC 25922 (E. coli ATCC 25922); 8 µg/mL (≈ 26.3 µM) against E. faecalis ATCC 29212 (E. faecalis ATCC 29212); 8 µg/mL (≈ 26.3 µM) with E. faecalis ATCC 29212 (E. faecalis, ATCC number not given); 8 µg/mL (≈ 26.3 µM) in assay [1]. In assay [3], the “MIC, C. FREUNDII” value is given as 8.
With `CCOC(=O)c1cc(-c2nnn[nH]2)c(-c2ccc(F)cc2)s1` [DNM-124, 5-(4-Fluoro-phenyl)-4-(1H-tetrazol-5-yl)-thiophene-2-carboxylic acid ethyl ester], the MIC in the assay with A. anitratus ATCC 19606 is 64 µg/mL (≈ 201 µM); with B. cepacia ATCC 25416, 64 µg/mL (≈ 201 µM); in the assay on E. aerogenes ATCC 13048, > 64 µg/mL; with E. coli ATCC 25922, > 64 µg/mL; in the assay on E. faecalis ATCC 29212 (setting [18]) it was > 64 µg/mL; in the assay with E. faecalis ATCC 29212 (setting [19]), > 64 µg/mL. For the same compound, the MIC (in the assay on K. oxytoca ATCC 49131; in the assay with K. pneumoniae ATCC 13883; in the assay on MRSA ATCC 33591; in the assay on P. vulgaris ATCC 49132; in assay [1]; in the assay on S. aureus ATCC 29213) was > 64 µg/mL throughout. In addition, the MIC in assay [2] was 64 µg/mL (≈ 201 µM); in the assay with S. marcescens ATCC 8100 it was > 64 µg/mL. Moreover, the MIC, C. AMALONATICUS in assay [4] is > 64 µg/mL. In addition, the “MIC, C. FREUNDII” value in assay [3] is reported as >64. For the same compound, the MIC, C. KOSERI in assay [5] was > 64 µg/mL. Further, the MIC, E. AEROGENES in assay [6] was > 64 µg/mL. For the same compound, the MIC, E. CLOACAE in [7] was > 64 µg/mL. The MIC, E. COLI in [8] is > 64 µg/mL. In addition, the MIC, K. OXYTOCA in [9] is > 64 µg/mL. The MIC, K. PNEUMONIAE in assay [10] is > 64 µg/mL. Besides, the MIC, M. MORGANII in [11] was > 64 µg/mL. Moreover, in assay [12], the MIC, P. MIRABILIS was > 64 µg/mL. The MIC, P. RETTGERI in assay [13] is > 64 µg/mL. The MIC, P. VULGARIS in assay [14] is > 64 µg/mL. Also, in assay [15], the MIC, S. LIQUEFACIENS was > 64 µg/mL. Also, the MIC, S. MALTOPHILIA in [16] is > 64 µg/mL. For the same compound, the MIC, S. MARCESCENS in assay [17] is > 64 µg/mL.
